Measured values reported in US20090239884A1, “Methods of Treating Inflammation” (priority 2006, published 2009).
Entries after “also recorded” stand apart in the source; their conditions may differ.

Columns and labels:
[1] = test system: Con A-stimulated mouse splenocytes; assay: transwell chemotaxis assay in response to CXCL12, Con A-stimulated splenocytes; type: cell-based; conditions: Mus musculus, Splenocyte, 4 h; read-out: inhibition of CXCL12-induced migration
Protocol: (§1) Isolation of murine splenocytes. Splenocytes were isolated from 6-8 week old C57BL/6 mice obtained from Jackson Laboratories (Bar Harbor, Me.). Spleens were removed and a single-cell suspension prepared using 40 μm cell strainers (Fisher Scientific). Cells were washed with RPMI 1640 medium supplemented with 5% fetal bovine serum, 2 mM L-glutamine, 100 U/ml penicillin and […] (all from GIBCO). Red blood cells were lysed using standard lysis buffer (0.15M NH4Cl, 10mM KHCO3, 0.1 mM EDTA PH 7.4). Cells were then washed and used in chemotaxis assays either as unstimulated cells or after stimulation with Con A ([…]) as indicated.
(§2) Preparation of Test Reagents. […] This concentration of DMSO had no effect on migration of splenocytes in the presence or absence of CXCL12. CXCL12 was prepared as a 100 μg/ml stock solution in PBS+0.1% BSA, Con A was prepared as a stock of 2.5 mg/ml in PBS, and dibutyryl cAMP and Rp-cAMPS were prepared as 50 mM stock solutions in water, and these reagents were diluted directly into the chemotaxis assays.
(§3) Chemotaxis Assay. Chemotaxis assays were done in 24-well transwell plates with a pore size of 5 μm (Costar, Corning). Splenocytes were placed in medium at a concentration of 3×10^6 cells/ml. Where test agents were used, splenocytes were pretreated with the agent or vehicle for 45 to 60 min, following which 100 μl of the splenocyte suspension was placed into the upper chamber of transwell plates, and the lower chamber was filled with 600 μl of medium. When added to induce migration, CXCL12 (250 ng/ml) was added to the lower chamber only. Other test reagents were added as indicated to both the upper and lower chambers. After 4 hours of incubation at 37° C. in 5% CO2, transwell inserts were gently removed and the number of cells that migrated into the lower chamber were counted by withdrawing 500 μl of lower chamber medium, mixing it with 10 ml of buffer and counting the cells on a Coulter Counter (Beckman Coulter Z series). Where results are expressed as % of CXCL12-stimulated migration, this was calculated as follows: (cells migrated in presence of CXCL12 and test reagent—cells migrated in medium alone)/(cells migrated in presence of CXCL12-cells migrated in medium alone)×100. Experimental points for all chemotaxis assays were performed in triplicate.
(§4) Splenocytes isolated from mice were assayed for migration in response to CXCL12 (250 ng/ml), either directly (unstimulated) or following 48 hr of incubation with 3 μg/ml Con A (stimulated), as described in Methods. To test for effects of dibutyryl cAMP, cells were pretreated with dibutyryl cAMP (500 μM) for 45-60 min prior to beginning the chemotaxis assay, and the assays were conducted with dibutyryl cAMP (db-cAMP) present (500 μM) in both the upper and lower chambers of the transwell plates. Data plotted are derived from a single experiment performed in triplicate. *p<0.001; **p<0.02.

[2] = test system: CD4+CD25− T cells; assay: [3H]thymidine proliferation assay of CD4+CD25− T cells; type: cell-based, mouse
Protocol: Proliferation assays. T cell-depleted splenocytes (Tds) were obtained by negative selection with murine anti-CD4 and anti-CD8 microbeads (Miltenyi Biotec). Isolated CD4^+CD25^− T cells (5×10^4/well) were cultured in 96-well plates (Costar) with irradiated Tds (5×10^4/well) (2600 rad) in the presence or absence of soluble anti-CD3 mAb (0.7 μg/ml) (R&D Systems, Minneapolis, Minn.). DP (100 μM), IBMX (300 μM) or vehicle control (0.1% DMSO in media) were added at 0 hours. After 48 hours, 2 μCi per well of [^3H]thymidine (NEN, Waltham, Mass.) was added and cells were harvested 16 hours later using a semiautomated cell harvester and [^3H]thymidine incorporation determined by scintillation counting. Cell viability in suppression assays was determined using trypan blue (2.5%) at 64 hours of incubation.
In FIG. 22, purified CREM/ICER^+/+ or CREM/ICER^−/− derived CD4^+CD25^−T cells (5×10^4/well) were cocultured with irradiated T cell depleted splenocytes (5×10^4 well) presenting soluble anti-CD3 mAb (0.75 μg/ml) and the cultures were incubated with IBMX (300 μM), DP (100 μM), or vehicle (media) for 64 hours with [3H]thymidine added for the final 16 hours. The extent of proliferation was determined by [3H]thymidine incorporation at 64 hours and the data are presented as the mean cpm+SEM of an experiment run in triplicate. The results are representative of 2 independent experiments. […] (*p<0.05, **p<0.001; comparisons to vehicle were analyzed using a one way ANOVA followed by Bonferroni t-test and using an unpaired t-test for comparisons between DP and IBMX).

[3] = test system: PDE8; conditions: read-out: Potency (IC50) PDE8; cited from earlier work
[4] = test system: EAE in C57BL/6 mice; assay: experimental autoimmune encephalomyelitis (EAE), clinical score; type: in vivo, mouse
Protocol: Induction of active EAE and clinical evaluation. Active EAE is induced in 8-12 weeks old mice by immunization with MOG p35-55 in complete Freund's adjuvant. 200 μg of MOG p35-55 peptide and 800 μg of killed mycobacterium tuberculosis are emulsified in CFA and injected subcutaneously by means of four injections over the flanks. In addition, 200 ng of pertussis toxin dissolved in 200 μl PBS is injected i.p. at the day of immunization and again the day after. Mice are monitored daily for clinical signs of EAE, and scored according to the following criteria: 0, no signs of disease; 0.5, partial tail weakness; 1, limp tail; 1.5, limp tail and slight slowing of righting; 2, partial hind limb weakness and/or marked slowing of righting; 2.5, dragging of hind limb(s) without complete paralysis; 3, complete paralysis of at least one hind limb; 4, severe forelimb weakness; 5, moribund or dead. Daily clinical scores are calculated and presented as the average (mean) and standard error of the mean (SEM) of all individual disease scores in each group. Statistical comparison of disease severity by clinical score is accomplished by calculating the mean clinical score for each mouse from day of disease onset to day 60 and performing a non-parametric Wilcoxon analysis.
[…] 8. DP is the only inhibitor known to block PDE 8 in addition to other PDEs. […]

[5] = test system: unstimulated mouse splenocytes; assay: transwell chemotaxis assay in response to CXCL12, unstimulated splenocytes; type: cell-based; conditions: Mus musculus, Splenocyte, 4 h; read-out: inhibition of CXCL12-induced migration
Protocol: as §1, §2, §3, §4

[6] = 64 hours, DP 100 μM, IBMX 300 μM

| SMILES | inhibition at 100 µM [1] [%] | T cell proliferation ([3H]thymidine incorporation) [2, 6] | inhibition of proliferation, DP compared with IBMX ([2]; 64 hours, DP 100 μM, IBMX 300 μM, listed as DP) | effect of Crem gene deletion (CREM/ICER−/− T cells) on DP mediated suppression of proliferation ([2]; DP 100 μM) | viability of T cells ([2]; trypan blue at 64 hours, DP treatment) | IC50 [3] [µM] | development of clinical signs of EAE ([4]; 2 mg DP per mouse per day, day 0 until day 23) | clinical severity of EAE compared with vehicle ([4]; treatment after onset (mean score grade 1), 2×1 mg/mouse/day i.p.) | inhibition at 100 µM [5] [%] | inhibition at 300 µM [1] [%] | inhibition at 300 µM [5] [%] |
| --- | --- | --- | --- | --- | --- | --- | --- | --- | --- | --- | --- |
| OCCN(CCO)c1nc(N2CCCCC2)c2nc(N(CCO)CCO)nc(N3CCCCC3)c2n1 [Dipyridamole, 2,2′,2″,2′″-(4,8-di(piperidin-1-yl)pyrimido[5,4-d]pyrimidine-2,6-diyl)bis(azanetriyl)tetraethanol] | 54 | potently suppressed | more potently than IBMX; also recorded: greater | did not affect | not affected | 4 to 9 | profoundly suppressed | significantly decreased | 55 |  |  |
| CC(C)Cn1c(=O)n(C)c(=O)c2[nH]cnc21 [IBMX, 3-isobutyl-1-methylxanthine] |  | potently suppressed |  |  |  |  |  |  |  | 21 | 57 |
